In patent US7928107B2, “Quinazolines useful as modulators of ion channels” (Vertex Pharmaceuticals Incorporated, priority 2004, dated 2011):

Molecular target: NaV 1.8 channel (Homo sapiens, UniProt Q9Y5Y9)
Assay: Activity against NaV 1.8 channel (optical membrane potential assay)
Format: cell-based
Outline: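 FRET membrane-potential assay (coumarin CC2-DMPE donor, oxonol DiSBAC2(3) acceptor plus veratridine) on VIPR; compound added with oxonol for 20–30 min before Na+ add-back stimulation. Activity from background-subtracted 460/580 nm ratio change (baseline 2–7 s, response 15–24 s) relative to tetracaine positive and drug-free negative controls.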

Chain of NaV 1.8 channel (Q9Y5Y9 whole entry): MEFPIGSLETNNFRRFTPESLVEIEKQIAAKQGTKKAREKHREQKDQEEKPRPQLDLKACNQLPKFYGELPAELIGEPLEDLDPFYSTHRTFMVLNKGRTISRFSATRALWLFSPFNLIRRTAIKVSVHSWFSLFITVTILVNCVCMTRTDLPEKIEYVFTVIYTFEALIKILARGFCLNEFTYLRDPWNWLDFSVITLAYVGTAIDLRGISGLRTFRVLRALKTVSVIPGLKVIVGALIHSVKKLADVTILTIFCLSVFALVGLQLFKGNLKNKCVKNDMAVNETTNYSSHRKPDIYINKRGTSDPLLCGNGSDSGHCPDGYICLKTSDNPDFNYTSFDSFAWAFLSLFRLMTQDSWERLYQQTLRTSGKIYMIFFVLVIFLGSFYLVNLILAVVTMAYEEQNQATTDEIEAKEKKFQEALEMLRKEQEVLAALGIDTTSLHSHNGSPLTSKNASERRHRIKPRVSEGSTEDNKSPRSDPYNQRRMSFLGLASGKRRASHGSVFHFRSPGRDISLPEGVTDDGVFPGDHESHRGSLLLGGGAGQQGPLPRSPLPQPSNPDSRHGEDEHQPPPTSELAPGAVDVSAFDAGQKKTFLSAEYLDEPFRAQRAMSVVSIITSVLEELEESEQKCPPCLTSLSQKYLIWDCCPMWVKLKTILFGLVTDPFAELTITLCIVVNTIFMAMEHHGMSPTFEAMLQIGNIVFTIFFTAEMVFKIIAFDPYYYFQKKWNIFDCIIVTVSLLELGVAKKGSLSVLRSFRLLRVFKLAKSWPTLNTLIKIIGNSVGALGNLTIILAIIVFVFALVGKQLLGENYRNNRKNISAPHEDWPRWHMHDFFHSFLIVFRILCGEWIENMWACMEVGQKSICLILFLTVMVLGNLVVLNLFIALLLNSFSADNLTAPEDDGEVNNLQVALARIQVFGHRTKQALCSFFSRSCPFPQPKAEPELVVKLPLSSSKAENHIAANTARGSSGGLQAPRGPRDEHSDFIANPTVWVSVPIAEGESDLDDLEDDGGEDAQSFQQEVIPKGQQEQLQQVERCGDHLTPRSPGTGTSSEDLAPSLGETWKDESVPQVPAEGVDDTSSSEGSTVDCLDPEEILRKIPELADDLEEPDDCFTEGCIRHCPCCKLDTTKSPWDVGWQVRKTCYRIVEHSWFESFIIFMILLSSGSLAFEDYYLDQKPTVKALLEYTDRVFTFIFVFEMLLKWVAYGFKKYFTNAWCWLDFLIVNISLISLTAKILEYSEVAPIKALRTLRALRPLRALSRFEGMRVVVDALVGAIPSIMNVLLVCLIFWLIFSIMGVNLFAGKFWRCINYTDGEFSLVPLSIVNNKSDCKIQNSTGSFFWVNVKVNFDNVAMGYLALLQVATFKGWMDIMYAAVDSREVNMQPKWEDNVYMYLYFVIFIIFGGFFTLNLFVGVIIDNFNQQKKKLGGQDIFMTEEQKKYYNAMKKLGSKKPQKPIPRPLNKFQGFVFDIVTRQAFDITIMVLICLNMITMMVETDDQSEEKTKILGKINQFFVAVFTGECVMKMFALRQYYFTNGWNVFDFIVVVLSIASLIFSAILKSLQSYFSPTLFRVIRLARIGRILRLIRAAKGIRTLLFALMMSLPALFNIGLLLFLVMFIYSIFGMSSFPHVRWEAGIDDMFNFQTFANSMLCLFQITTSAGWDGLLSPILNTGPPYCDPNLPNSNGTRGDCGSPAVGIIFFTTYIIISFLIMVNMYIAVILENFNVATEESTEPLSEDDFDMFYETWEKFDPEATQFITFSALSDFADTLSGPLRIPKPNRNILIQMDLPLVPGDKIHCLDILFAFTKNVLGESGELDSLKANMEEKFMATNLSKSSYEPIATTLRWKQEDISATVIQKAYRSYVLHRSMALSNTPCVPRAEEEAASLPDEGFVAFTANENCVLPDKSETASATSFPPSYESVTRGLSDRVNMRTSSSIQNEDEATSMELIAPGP

Compound	IC50 [µM]
Cc1ccc2c(N3CC[C@H](NC(=O)OC(C)(C)C)C3)nc(-c3ccccc3O)nc2c1 [Example 370, tert-Butyl (S)-1-(2-(2-hydroxyphenyl)-7-methylquinazolin-4-yl)pyrrolidin-3-ylcarbamate]	< 2
Cc1ccc2c(N3CC[C@@H](CNC(=O)OC(C)C)C3)nc(-c3c(O)cccc3F)nc2c1 [Example 371, Isopropyl ((S)-1-(2-(2-fluoro-6-hydroxyphenyl)-7-methylquinazolin-4-yl)pyrrolidin-3-yl)methylcarbamate]	< 2
Cc1ccc2c(N3CC[C@@H](CNC(=O)OCC(C)C)C3)nc(-c3c(O)cccc3F)nc2c1 [Example 372, Isobutyl ((S)-1-(2-(2-fluoro-6-hydroxyphenyl)-7-methylquinazolin-4-yl)pyrrolidin-3-yl)methylcarbamate]	< 2
COCCOC(=O)NC[C@@H]1CCN(c2nc(-c3c(O)cccc3F)nc3cc(C)ccc23)C1 [Example 373, 2-Methoxyethyl ((S)-1-(2-(2-fluoro-6-hydroxyphenyl)-7-methylquinazolin-4-yl)pyrrolidin-3-yl)methylcarbamate]	2 to 10
CCCOC(=O)NC[C@@H]1CCN(c2nc(-c3ccccc3O)nc3ccc(F)cc23)C1 [Example 374, Propyl ((S)-1-(6-fluoro-2-(2-hydroxyphenyl)quinazolin-4-yl)pyrrolidin-3-yl)methylcarbamate]	> 10
CC(C)(C)COC(=O)NC[C@@H]1CCN(c2nc(-c3ccccc3O)nc3ccc(F)cc23)C1 [Example 375, Neopentyl ((S)-1-(6-fluoro-2-(2-hydroxyphenyl)quinazolin-4-yl)pyrrolidin-3-yl)methylcarbamate]	> 10
CC(C)COC(=O)NC[C@@H]1CCN(c2nc(-c3ccccc3O)nc3ccc(F)cc23)C1 [Example 376, Isobutyl ((S)-1-(6-fluoro-2-(2-hydroxyphenyl)quinazolin-4-yl)pyrrolidin-3-yl)methylcarbamate]	> 10
COCCOC(=O)NC[C@@H]1CCN(c2nc(-c3ccccc3O)nc3ccc(F)cc23)C1 [Example 377, 2-Methoxyethyl ((S)-1-(6-fluoro-2-(2-hydroxyphenyl)quinazolin-4-yl)pyrrolidin-3-yl)methylcarbamate]	2 to 10
Cc1ccc2c(N3CC(C(=O)NCc4ccncc4)C3)nc(-c3ccccc3O)nc2c1 [Example 401, 1-(2-(2-Hydroxyphenyl)-7-methylquinazolin-4-yl)-N-((pyridin-4-yl)methyl)azetidine-3-carboxamide]	> 10
Cc1ccc2c(N3CC(C(=O)NCc4cccnc4)C3)nc(-c3ccccc3O)nc2c1 [Example 402, 1-(2-(2-Hydroxyphenyl)-7-methylquinazolin-4-yl)-N-((pyridin-3-yl)methyl)azetidine-3-carboxamide]	> 10
Cc1ccc2c(N3CC(C(=O)NCc4cccc(OC(F)(F)F)c4)C3)nc(-c3ccccc3O)nc2c1 [Example 403, N-(3-(Trifluoromethoxy)benzyl)-1-(2-(2-hydroxyphenyl)-7-methylquinazolin-4-yl)azetidine-3-carboxamide]	> 10
Cc1ccc2c(N3CC(CNC(=O)OCC4CCCO4)C3)nc(-c3ccccc3O)nc2c1 (centres unmarked) [Example 415]	2 to 10
Cc1ccc2c(N3CC(NC(=O)OCC4CCOC4)C3)nc(-c3ccccc3O)nc2c1 (centres unmarked) [Example 416]	> 10
Cc1ccc2c(N3CC(CNC(=O)C4CCCO4)C3)nc(-c3ccccc3O)nc2c1 (centres unmarked) [Example 417]	> 10
Cc1ccc2c(N3CC(CNC(=O)OCC(C)C)C3)nc(-c3ccccc3O)nc2c1 [Example 418]	2 to 10
COCCOC(=O)NCC1CN(c2nc(-c3ccccc3O)nc3cc(C)ccc23)C1 [Example 419]	2 to 10
Cc1ccc2c(N3CC(CNC(=O)OC(C)C)C3)nc(-c3ccccc3O)nc2c1 [Example 420]	< 2
